Assay [1] has as its target T1, Serine/threonine-protein kinase 32C (Homo sapiens, UniProt Q86UX6). Nature of the assay: Selectivity interaction (ScanMAX (DiscoverX)) EUB0000285b STK32C. The following applies: at 1 µM.
Assay [2] has as its target T1, Serine/threonine-protein kinase 32C. Briefly: Selectivity interaction (ScanMAX (DiscoverX, competition-binding assay)) EUB0000285b STK32C.
The target of assay [3] is Testis-specific serine/threonine-protein kinase 1 (Homo sapiens) (UniProt Q9BXA7). Nature of the assay: Selectivity interaction (ScanMAX (DiscoverX)) EUB0000285b TSSK1B. The following applies: at 1 µM.
Assay [4] addresses Testis-specific serine/threonine-protein kinase 1 (Homo sapiens, UniProt Q9BXA7). Briefly: Selectivity interaction (ScanMAX (DiscoverX, competition-binding assay)) EUB0000285b TSSK1B.
In assay [5] the target is Serine/threonine-protein kinase 4 (Homo sapiens) (UniProt Q13043). Nature of the assay: Selectivity interaction (ScanMAX (DiscoverX)) EUB0000285b STK4. The conditions noted are these: at 1 µM.
Assay [6] addresses Serine/threonine-protein kinase 4 (Homo sapiens, UniProt Q13043). Nature of the assay: Selectivity interaction (ScanMAX (DiscoverX, competition-binding assay)) EUB0000285b STK4.
The target in assay [7] is T2, Serine/threonine-protein kinase PAK 3 (Homo sapiens, UniProt O75914). Nature of the assay: Selectivity interaction (ScanMAX (DiscoverX)) EUB0000285b PAK3. The following applies: at 1 µM.
Target sequence in this assay (O75914 whole entry, looked up): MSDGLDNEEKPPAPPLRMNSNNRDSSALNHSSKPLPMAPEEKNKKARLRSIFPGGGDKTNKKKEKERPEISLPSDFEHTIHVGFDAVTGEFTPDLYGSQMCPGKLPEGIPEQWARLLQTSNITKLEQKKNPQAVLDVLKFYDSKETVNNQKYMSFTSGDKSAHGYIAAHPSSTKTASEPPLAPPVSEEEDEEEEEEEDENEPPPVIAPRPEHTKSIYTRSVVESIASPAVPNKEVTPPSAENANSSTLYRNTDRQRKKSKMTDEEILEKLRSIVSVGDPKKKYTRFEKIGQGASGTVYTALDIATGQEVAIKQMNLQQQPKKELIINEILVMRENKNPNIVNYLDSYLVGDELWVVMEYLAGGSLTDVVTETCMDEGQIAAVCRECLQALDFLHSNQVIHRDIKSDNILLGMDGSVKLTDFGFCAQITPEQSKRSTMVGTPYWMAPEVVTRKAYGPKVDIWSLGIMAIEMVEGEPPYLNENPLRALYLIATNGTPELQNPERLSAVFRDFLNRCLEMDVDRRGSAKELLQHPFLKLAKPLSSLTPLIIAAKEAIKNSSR
Assay [8] concerns the target T2, Serine/threonine-protein kinase PAK 3. Nature of the assay: Selectivity interaction (ScanMAX (DiscoverX, competition-binding assay)) EUB0000285b PAK3.
Target sequence in this assay (O75914 whole entry): as the sequence (O75914 whole entry, looked up) above
Assay [9] addresses T3, Leukocyte tyrosine kinase receptor (Homo sapiens, UniProt P29376). Briefly: Selectivity interaction (ScanMAX (DiscoverX)) EUB0000285b LTK. The conditions noted are these: at 1 µM.
For assay [10], the target named is T3, Leukocyte tyrosine kinase receptor. Nature of the assay: Selectivity interaction (ScanMAX (DiscoverX, competition-binding assay)) EUB0000285b LTK.
In assay [11] the target is T4, Serine/threonine-protein kinase LATS1 (Homo sapiens) (UniProt O95835).
T4 sequence (whole entry): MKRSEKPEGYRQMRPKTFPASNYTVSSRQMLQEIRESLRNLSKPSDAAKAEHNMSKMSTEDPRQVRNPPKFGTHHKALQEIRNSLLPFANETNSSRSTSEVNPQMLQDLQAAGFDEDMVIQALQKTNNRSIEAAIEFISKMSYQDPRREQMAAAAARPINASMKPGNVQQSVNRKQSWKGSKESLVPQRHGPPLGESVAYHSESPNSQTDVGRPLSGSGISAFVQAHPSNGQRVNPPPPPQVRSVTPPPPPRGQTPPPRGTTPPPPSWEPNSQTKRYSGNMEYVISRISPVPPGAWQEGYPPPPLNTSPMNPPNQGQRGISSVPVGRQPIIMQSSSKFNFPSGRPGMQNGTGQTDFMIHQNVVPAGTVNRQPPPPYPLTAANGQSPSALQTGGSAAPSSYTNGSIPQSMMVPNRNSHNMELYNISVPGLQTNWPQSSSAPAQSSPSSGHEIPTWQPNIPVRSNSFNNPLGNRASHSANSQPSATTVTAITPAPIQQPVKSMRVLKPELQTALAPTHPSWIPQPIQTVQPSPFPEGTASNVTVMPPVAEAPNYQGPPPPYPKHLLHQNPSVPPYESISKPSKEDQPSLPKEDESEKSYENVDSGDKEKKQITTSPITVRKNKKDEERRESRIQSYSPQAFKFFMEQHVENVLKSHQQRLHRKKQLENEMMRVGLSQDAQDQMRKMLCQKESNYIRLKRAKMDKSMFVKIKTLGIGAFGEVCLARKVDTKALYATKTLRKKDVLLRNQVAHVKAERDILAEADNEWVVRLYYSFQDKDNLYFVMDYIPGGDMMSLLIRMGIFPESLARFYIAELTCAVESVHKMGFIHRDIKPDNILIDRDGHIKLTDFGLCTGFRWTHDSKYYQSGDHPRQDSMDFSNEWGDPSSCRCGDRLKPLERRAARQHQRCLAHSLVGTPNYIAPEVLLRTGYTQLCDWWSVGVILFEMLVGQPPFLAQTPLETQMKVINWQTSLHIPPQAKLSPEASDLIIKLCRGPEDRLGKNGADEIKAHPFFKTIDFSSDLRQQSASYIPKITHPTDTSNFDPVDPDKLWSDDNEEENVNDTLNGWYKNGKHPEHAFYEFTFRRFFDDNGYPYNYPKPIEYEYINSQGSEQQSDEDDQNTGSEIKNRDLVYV
Briefly: Selectivity interaction (ScanMAX (DiscoverX)) EUB0000285b LATS1. The following applies: at 1 µM.

Assay [12] concerns the target Serine/threonine-protein kinase LATS1 (Homo sapiens, UniProt O95835). Nature of the assay: Selectivity interaction (ScanMAX (DiscoverX, competition-binding assay)) EUB0000285b LATS1.
For assay [13], the target named is T5, Alpha-2C adrenergic receptor (Homo sapiens, UniProt P18825).
T5 sequence (P18825 whole entry): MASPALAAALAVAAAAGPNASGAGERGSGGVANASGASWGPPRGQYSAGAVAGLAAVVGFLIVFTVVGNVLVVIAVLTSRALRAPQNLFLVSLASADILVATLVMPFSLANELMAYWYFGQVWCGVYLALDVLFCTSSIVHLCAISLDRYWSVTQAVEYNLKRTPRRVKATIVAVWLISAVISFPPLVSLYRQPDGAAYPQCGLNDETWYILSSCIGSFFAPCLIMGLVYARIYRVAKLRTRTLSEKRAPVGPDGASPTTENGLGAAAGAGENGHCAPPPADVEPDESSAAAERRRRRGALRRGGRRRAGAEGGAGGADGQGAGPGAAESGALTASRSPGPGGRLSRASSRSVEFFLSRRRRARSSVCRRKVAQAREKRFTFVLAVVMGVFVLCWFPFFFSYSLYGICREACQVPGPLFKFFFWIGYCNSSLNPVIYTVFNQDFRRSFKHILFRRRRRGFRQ
Briefly: Selectivity interaction (Enzyme panel (GPCRS, ion channels, and transporters)) EUB0000194b ADRA2C.

For assay [14], the target named is Protein arginine N-methyltransferase 5 (Homo sapiens, UniProt O14744). Briefly: Selectivity interaction (HMT panel) EUB0000194b PRMT5.
Assay [15] has as its target T6, Histone-lysine N-methyltransferase SETD7 (Homo sapiens, UniProt Q8WTS6).
T6 sequence (Q8WTS6 whole entry): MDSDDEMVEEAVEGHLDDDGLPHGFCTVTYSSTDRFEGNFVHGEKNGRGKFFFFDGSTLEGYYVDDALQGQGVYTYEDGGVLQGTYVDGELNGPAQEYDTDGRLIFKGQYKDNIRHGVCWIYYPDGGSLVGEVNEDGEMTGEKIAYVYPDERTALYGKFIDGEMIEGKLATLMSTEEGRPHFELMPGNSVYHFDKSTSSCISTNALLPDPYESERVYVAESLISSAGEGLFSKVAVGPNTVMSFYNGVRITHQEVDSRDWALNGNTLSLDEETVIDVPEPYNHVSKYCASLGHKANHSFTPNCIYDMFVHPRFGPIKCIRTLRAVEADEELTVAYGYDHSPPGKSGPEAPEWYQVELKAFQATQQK
Nature of the assay: Selectivity interaction (HMT panel) EUB0000194b SETD7.

Assay [16] addresses Histone-lysine N-methyltransferase 2A (Homo sapiens, UniProt Q03164). Nature of the assay: Selectivity interaction (HMT panel) EUB0000194b MLL.
Assay [17] has as its target Histone-arginine methyltransferase CARM1 (Homo sapiens, UniProt Q86X55). Nature of the assay: Selectivity interaction (HMT panel) EUB0000194b CARM1.
Assay [18] addresses Histone-lysine N-methyltransferase EZH2 (Homo sapiens, UniProt Q15910). Briefly: Selectivity interaction (HMT panel) EUB0000194b EZH2.
The target of assay [19] is Protein arginine N-methyltransferase 1 (Homo sapiens, UniProt Q99873). Briefly: Selectivity interaction (HMT panel) EUB0000194b PRMT1.
Assay [20] has as its target Protein arginine N-methyltransferase 3 (Homo sapiens, UniProt O60678). Nature of the assay: Selectivity interaction (HMT panel) EUB0000194b PRMT3.
Assay [21] deals with Protein arginine N-methyltransferase 8 (Homo sapiens, UniProt Q9NR22). Nature of the assay: Selectivity interaction (HMT panel) EUB0000194b PRMT8.
Assay [22] addresses T7, N-lysine methyltransferase KMT5A (Homo sapiens, UniProt Q9NQR1).
T7 sequence (Q9NQR1 whole entry): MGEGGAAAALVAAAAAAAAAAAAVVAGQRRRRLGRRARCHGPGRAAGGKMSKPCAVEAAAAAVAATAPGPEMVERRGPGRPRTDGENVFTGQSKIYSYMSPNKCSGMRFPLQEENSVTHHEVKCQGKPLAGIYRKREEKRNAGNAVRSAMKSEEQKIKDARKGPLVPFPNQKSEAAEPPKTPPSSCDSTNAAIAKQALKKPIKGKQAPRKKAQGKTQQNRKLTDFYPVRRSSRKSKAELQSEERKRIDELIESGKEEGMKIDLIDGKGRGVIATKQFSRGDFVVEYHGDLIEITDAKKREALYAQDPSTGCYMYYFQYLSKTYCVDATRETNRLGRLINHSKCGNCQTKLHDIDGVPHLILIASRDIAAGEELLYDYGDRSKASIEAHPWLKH
Nature of the assay: Selectivity interaction (HMT panel) EUB0000194b SETD8.

The target of assay [23] is Histone-lysine N-methyltransferase SETDB1 (Homo sapiens, UniProt Q15047). Nature of the assay: Selectivity interaction (HMT panel) EUB0000194b SETDB1.
Assay [24] deals with Histone-lysine N-methyltransferase SUV39H2 (Homo sapiens, UniProt Q9H5I1). Nature of the assay: Selectivity interaction (HMT panel) EUB0000194b SUV39H2.
In assay [25] the target is Histone-lysine N-methyltransferase KMT5B (Homo sapiens, UniProt Q4FZB7). Nature of the assay: Selectivity interaction (HMT panel) EUB0000194b SUV420H1.
The target of assay [26] is Histone-lysine N-methyltransferase KMT5C (Homo sapiens, UniProt Q86Y97). Briefly: Selectivity interaction (HMT panel) EUB0000194b SUV420H2.

Experimental findings from ChEMBL document CHEMBL5212743, “Selectivity Literature for EUbOPEN Chemogenomics Library wave 3” (2023) are described below.

As a reminder, the Kd is the equilibrium constant for the complex coming apart. Read a high Kd as weaker binding. As a reminder, the Ki is a measure of affinity in units of concentration, obtained from inhibition or displacement. The IC50 is the midpoint of a concentration-inhibition curve. Low readings indicate greater potency in that assay, high ones weaker potency in that assay.

T1 sequence (Q86UX6 whole entry): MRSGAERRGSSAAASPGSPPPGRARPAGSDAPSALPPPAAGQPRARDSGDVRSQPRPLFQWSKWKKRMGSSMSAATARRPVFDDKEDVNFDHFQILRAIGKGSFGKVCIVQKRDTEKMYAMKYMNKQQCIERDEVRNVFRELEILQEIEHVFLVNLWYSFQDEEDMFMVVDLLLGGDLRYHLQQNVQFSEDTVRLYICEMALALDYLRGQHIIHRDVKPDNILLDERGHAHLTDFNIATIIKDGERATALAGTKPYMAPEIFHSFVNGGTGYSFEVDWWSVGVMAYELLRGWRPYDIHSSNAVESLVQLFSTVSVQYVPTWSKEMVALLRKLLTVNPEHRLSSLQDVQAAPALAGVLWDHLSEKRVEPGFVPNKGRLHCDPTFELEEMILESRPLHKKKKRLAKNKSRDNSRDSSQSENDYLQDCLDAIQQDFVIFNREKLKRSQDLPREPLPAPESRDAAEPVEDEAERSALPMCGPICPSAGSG
T3 sequence (P29376 whole entry): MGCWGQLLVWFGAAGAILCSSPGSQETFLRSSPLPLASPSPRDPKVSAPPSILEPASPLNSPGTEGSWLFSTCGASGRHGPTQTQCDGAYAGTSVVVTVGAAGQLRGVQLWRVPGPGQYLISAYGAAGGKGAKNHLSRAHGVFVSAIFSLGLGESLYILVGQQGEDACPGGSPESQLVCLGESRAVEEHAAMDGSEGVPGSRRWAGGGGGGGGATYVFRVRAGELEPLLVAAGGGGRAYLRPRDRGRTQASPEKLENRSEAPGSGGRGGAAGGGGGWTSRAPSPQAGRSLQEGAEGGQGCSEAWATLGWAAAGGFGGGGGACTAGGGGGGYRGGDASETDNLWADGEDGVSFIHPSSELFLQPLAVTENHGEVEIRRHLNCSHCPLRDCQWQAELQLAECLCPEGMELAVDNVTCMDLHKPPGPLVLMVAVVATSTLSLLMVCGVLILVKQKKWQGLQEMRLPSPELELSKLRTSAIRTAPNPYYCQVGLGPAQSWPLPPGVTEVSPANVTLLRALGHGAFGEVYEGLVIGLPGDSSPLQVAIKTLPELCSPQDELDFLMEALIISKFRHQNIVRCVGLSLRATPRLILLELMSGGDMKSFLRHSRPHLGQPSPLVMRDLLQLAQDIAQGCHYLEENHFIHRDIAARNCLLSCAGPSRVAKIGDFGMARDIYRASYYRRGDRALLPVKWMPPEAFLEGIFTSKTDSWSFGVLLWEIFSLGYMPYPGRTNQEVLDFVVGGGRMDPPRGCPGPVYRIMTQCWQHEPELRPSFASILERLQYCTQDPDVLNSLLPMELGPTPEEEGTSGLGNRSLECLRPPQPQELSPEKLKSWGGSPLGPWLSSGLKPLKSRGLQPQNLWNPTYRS
Sequence of Histone-lysine N-methyltransferase SUV39H2 (Q9H5I1 whole entry): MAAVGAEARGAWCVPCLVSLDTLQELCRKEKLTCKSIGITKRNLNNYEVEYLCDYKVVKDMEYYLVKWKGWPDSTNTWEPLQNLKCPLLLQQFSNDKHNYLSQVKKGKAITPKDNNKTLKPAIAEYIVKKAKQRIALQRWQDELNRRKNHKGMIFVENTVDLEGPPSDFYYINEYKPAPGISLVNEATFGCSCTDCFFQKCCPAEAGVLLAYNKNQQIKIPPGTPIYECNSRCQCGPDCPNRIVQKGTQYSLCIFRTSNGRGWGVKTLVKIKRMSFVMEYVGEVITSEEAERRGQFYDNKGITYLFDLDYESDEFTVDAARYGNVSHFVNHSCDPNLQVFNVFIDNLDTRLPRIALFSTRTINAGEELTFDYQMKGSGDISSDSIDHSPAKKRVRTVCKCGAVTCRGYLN
Sequence of Protein arginine N-methyltransferase 3 (O60678 whole entry): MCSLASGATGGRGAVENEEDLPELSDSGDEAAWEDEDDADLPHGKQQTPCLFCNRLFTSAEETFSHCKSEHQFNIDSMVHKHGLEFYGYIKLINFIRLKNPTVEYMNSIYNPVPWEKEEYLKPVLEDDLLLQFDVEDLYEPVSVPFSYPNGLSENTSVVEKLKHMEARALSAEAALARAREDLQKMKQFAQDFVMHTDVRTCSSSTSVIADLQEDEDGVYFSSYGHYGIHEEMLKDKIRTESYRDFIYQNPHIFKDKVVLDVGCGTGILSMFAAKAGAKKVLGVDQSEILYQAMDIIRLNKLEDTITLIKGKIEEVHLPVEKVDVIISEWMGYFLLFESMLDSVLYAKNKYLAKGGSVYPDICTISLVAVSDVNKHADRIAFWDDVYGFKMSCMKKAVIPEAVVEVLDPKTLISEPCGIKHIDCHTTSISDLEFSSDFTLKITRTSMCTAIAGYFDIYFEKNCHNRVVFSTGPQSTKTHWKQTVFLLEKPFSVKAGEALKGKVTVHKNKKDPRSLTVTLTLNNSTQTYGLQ
Sequence of Protein arginine N-methyltransferase 1 (Q99873 whole entry): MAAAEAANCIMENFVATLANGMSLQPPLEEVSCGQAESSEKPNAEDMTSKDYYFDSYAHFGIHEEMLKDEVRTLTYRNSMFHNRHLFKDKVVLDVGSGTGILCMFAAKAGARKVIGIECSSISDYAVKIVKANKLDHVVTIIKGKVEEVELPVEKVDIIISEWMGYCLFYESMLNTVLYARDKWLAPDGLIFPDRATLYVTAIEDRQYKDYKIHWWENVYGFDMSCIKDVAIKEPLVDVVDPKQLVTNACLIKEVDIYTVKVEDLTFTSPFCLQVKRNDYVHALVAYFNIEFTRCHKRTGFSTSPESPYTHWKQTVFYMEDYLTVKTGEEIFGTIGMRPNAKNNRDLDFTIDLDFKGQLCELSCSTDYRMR
Sequence of Histone-arginine methyltransferase CARM1 (Q86X55 whole entry): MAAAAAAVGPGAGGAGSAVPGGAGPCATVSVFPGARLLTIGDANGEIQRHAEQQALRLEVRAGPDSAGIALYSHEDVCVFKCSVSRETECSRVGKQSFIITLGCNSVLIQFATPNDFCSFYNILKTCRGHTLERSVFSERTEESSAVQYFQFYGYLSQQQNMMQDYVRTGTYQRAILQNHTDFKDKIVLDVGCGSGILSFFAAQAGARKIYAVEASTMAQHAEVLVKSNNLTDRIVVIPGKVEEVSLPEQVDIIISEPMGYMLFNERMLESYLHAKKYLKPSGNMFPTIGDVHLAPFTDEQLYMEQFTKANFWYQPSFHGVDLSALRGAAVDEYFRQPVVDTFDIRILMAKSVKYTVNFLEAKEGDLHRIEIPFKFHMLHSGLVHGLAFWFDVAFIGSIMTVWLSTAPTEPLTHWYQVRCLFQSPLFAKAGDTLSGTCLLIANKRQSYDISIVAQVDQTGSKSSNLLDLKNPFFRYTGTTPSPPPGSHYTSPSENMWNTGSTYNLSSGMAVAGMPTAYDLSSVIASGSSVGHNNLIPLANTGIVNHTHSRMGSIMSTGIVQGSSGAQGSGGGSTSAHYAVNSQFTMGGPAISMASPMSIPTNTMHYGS
Sequence of Serine/threonine-protein kinase 4 (Q13043 whole entry): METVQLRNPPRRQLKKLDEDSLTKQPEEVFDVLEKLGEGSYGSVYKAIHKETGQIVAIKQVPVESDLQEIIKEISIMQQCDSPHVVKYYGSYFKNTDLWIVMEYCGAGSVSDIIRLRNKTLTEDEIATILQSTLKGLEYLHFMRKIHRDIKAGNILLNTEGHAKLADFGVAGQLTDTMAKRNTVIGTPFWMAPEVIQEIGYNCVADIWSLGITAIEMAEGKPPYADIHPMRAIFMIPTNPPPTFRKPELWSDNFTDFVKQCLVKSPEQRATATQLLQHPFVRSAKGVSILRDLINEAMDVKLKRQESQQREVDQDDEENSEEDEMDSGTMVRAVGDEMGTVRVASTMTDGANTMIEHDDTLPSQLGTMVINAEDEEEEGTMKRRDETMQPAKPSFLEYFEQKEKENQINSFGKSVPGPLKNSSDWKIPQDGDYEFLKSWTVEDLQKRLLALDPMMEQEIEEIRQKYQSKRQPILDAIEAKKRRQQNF
Sequence of Serine/threonine-protein kinase 4 (Homo sapiens) (Q13043 whole entry): as above
Sequence of Testis-specific serine/threonine-protein kinase 1 (Homo sapiens) (Q9BXA7 whole entry): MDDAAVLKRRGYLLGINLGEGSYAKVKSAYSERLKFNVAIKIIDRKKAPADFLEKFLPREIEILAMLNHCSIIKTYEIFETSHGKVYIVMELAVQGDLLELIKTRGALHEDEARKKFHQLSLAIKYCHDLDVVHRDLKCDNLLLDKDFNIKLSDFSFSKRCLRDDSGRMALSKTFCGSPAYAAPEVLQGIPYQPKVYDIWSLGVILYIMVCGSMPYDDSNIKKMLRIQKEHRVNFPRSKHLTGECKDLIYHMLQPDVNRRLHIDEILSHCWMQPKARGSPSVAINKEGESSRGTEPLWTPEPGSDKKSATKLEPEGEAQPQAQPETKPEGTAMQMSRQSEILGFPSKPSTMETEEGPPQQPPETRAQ
Sequence of Testis-specific serine/threonine-protein kinase 1 (Q9BXA7 whole entry): as above

For the molecule `O=C(NCc1ccccc1)c1ccc(S(=O)(=O)NCc2ccccc2)cc1`, the % of control in assay [1] was 0%; in assay [3] it was 0%; in assay [5], 0%; in assay [7], 0%; in assay [9], 0%; in assay [11], 8.6%. Moreover, the Kd in assay [2], in assay [4], in [6], in assay [8], in assay [10] and in [12] was greater than 10 µM each time.
On to `COc1cc2c(NC3CCN(C(C)C)CC3)nc(N3CCC(F)(F)CC3)nc2cc1OCCCN1CCCC1`, for which the Ki in [13] is greater than 10 µM. For the same molecule, the IC50 in assay [14], in assay [15], in assay [16], in assay [17], in [18] and in assay [19] was greater than 10 µM each time. In addition, the IC50 in assay [20], in assay [21], in [22], in assay [23], in [24] and in [25] was greater than 10 µM throughout. Also, in assay [26], the IC50 is greater than 10 µM.
